The subject of this test is P. falciparum 3D7 growth, pLDH absorbance. Description: P. falciparum 3D7 growth inhibition, dose response, strain 3D7 (AID 2305).

One may read the IC50 as the point on the concentration scale where inhibition reaches its midpoint. Low values mean greater potency, high ones weaker potency.

`CC1CCN(CCNC(=O)c2ccc3c(=O)n(Cc4ccc(Cl)cc4)c(=S)[nH]c3c2)CC1` had a concentration for half-maximal inhibition (IC50) of 700 nM.

For `CC(C)(C)c1ccc(/C=C/C(=O)NCCCCCN2CCC(c3c[nH]c4ccccc34)CC2)cc1`, the IC50 was 1090 nM.

Compound `Nc1cccc(CNCc2ccc(-c3ccc(-c4nc5ccccc5[nH]4)s3)cc2)c1` showed an IC50 of 570 nM.

On to `Cc1cc(N2CCN(C)CC2)nc2ccc(NC(=O)Cc3cccc(C(F)(F)F)c3)cc12`, for which the IC50 amounted to 740 nM.

As for `CC(C)Oc1ccccc1-c1csc(C(=O)NCC2CCN(Cc3ccc(C(C)(C)C)cc3)C2)c1` (centres undefined), the IC50 is 1070 nM. The IC50 values of the last two compounds are within 1.5-fold of each other.

On to `O=C(Nc1cccc(-c2ccc(CN3CCCC3)cc2)c1)c1cccc(F)c1`, for which the IC50 worked out at 780 nM.

`COc1cc2nc(Nc3ccc(C)cc3)nc(Nc3ccc(C)cc3)c2cc1OC` had an IC50 of 140 nM. Against the preceding compound, the IC50 is about 5.6-fold lower.

As for `Cc1cc(F)ccc1N(c1nc(-c2cc(Cl)ccc2Cl)cs1)C1CCNC1` (centres undefined), the IC50 is 1010 nM.

`COc1ccc(CN2CCC(CN3CC4(OC3=O)c3ccccc3-c3ccccc34)C2)c(O)c1` (centres undefined) yielded an IC50 of 610 nM.

`COc1cc(N(C)Cc2cnc3nc(N)nc(N)c3n2)cc(OC)c1OC` had an IC50 of 440 nM.

Take `COc1cccc(NC(=O)c2cc(C(=O)Nc3cccc(OC)c3)cc([N+](=O)[O-])c2)c1`: the IC50 came to 660 nM.

In turn, `COc1ccc(-c2ccc(NC(=O)c3ccc(C#N)cc3)cc2)cc1CN1CCNCC1` registered an IC50 of 510 nM. The IC50 values of the last two compounds are within 1.5-fold of each other.

In the case of `O=C(Nc1ccc(N2CCCN(Cc3cccc(F)c3)CC2)cc1)c1ccc(F)cc1`, the IC50 was 840 nM.

The compound `O=C(OCc1ccccn1)c1nc2ccccc2[nH]1` showed an IC50 of 790 nM.

`Cc1cccc2[nH]c(-c3ccc(-c4ccc(CN5CCN(CCO)CC5)cc4)s3)nc12` had an IC50 of 710 nM.

`CC(C)CC(C)NC(=O)C1Cc2c([nH]c3cc(Cl)ccc23)C2(CCN(CCc3ccccc3)CC2)N1` (centres undefined) showed an IC50 of 810 nM. This IC50 and that of the compound before are within 1.5-fold of each other.

`COC(=O)c1cc(OC2CCOC2=O)cc2c1OC(C)(C)O2` (centres undefined) came in with an IC50 of 810 nM.

The compound `Cc1cccc2[nH]c(-c3cccc(-c4cccc(C(=O)NCc5nccn5C)c4)c3)nc12` registered a concentration for half-maximal inhibition (IC50) of 530 nM.

For the compound `CCCCCCCCOc1c(OCC)cc(Cc2cnc(N)nc2N)cc1OCC`, the IC50 came out at 1530 nM.

For the compound `CN(c1ncc(-c2cccc(CNCc3ccccc3O)c2)cn1)C1CCCCC1`, the IC50 turned out to be 820 nM.

For the compound `COc1c(C2CCN(CCCCNC(=O)c3cc(-c4ccc(Cl)cc4)[nH]c3C)CC2)ccc2c1CCCC2`, the IC50 came to 970 nM.

In turn, `COc1ccc(N2CCc3c(-c4cccc5cnccc45)cc(C)nc32)c(C)c1` came in with an IC50 of 660 nM.

The compound `COc1ccc(NC(=O)/C=C/c2cc(F)cc(C(F)(F)F)c2)cc1OCCN(C(C)C)C(C)C` showed an IC50 of 670 nM.

`Cc1cc(N[C@@H](Cc2ccccc2)C(=O)NC2CCCC2)nc(Nc2ccccc2)n1` had a half-inhibitory concentration (IC50) of 830 nM.

As for `COc1ccc(-c2nc3ccc(C)nc3nc2-c2ccc(OC)cc2)cc1`, the IC50 is 1110 nM.

`CN(C)C(=O)c1ccc(CN(Cc2ccc3c(c2)OCCO3)Cc2ccc3c(c2)OCO3)cc1` registered an IC50 of 180 nM.

For the compound `CCNc1cc(C(=O)N[C@@H](Cc2ccccc2)[C@H](O)CNCc2cccc(-n3ccnc3)c2)cc(N2CCCC2=O)c1`, the IC50 worked out at 630 nM. Compared with the last compound, the IC50 is about 3.5-fold higher.

On to `O=C(O)c1ccc(NC(=O)C2CC(=O)N(Cc3ccc(Cl)cc3)C(=Nc3ccc(Cl)cc3)S2)cc1` (centres undefined), for which the IC50 turned out to be 530 nM.

As for `COc1ccc(Nc2nc(NCc3cccc(NS(C)(=O)=O)c3)cc(-c3ccc(OC)cc3)n2)cc1`, the IC50 was found to be 1220 nM.

For `Cc1nc(C)c(CC(=O)Nc2cccc(-c3cccc(-c4nc5ccc(C(F)(F)F)cc5[nH]4)c3)c2)s1`, the IC50 was 830 nM.

Turning to `NCC1CCCN1Cc1cccc(-c2ccc(-c3nc4ccc(C(F)(F)F)cc4[nH]3)s2)c1` (centres undefined), the IC50 amounted to 750 nM.

Consider `CCOc1ccc2nc(C)cc(NN=Cc3cccc(F)c3)c2c1`, for which the IC50 amounted to 740 nM.

For `Cc1cnc(N2CCN(CC3CCN(C)CC3)CC2)nc1Oc1ccc(-n2ccnc2)cc1`, the IC50 came out at 720 nM.

In turn, `O=C(O[C@H]1CN[C@H](C#Cc2cc3c(Nc4ccc(OCc5cccc(F)c5)c(Cl)c4)ncnc3s2)C1)N1CCCC1` gave an IC50 of 710 nM. The IC50 values of the last two compounds are within 1.5-fold of each other.

Values taken from PubChem BioAssay AID2305 (GlaxoSmithKline (GSK), 2010).
